The subject of test [1] is phosphorylated GSK3 (Ser9). The experiment in a line: Cellular pGSK3 assay (phospho-GSK3 ELISA). In kind it is cell-based. Conditions: Homo sapiens, MCF7 cells, compound incubated 48h. The protocol: In order to study the cellular activity of the compounds according to the present invention, an ELISA-based assay has been established for the phosphorylated protein glycogen synthetase kinase 3 (GSK3). The assay is based on a solid phase sandwich ELISA that detects endogenous levels of phosphorylated GSK3 using a phospho-GSK3 (Ser9) specific antibody (BioSource International, Inc.; Catalog #KHO0461). After incubation with cell lysates, the coated antibody captures the phosphorylated GSK3 protein. Following extensive washing, GSK3 polyclonal antibody is added to detect the captured phospho-GSK3 protein. Secondary antibody (anti-rabbit IgG-HRP) is then used to recognize the bound detection antibody. After the second incubation and washing to remove all the excess anti-rabbit IgG-HRP, a substrate solution is added, which is acted upon by the bound enzyme to produce color. The intensity of this colored product is directly proportional to the concentration of GSK-3β [pS9] present in the original specimen. MCF7 cells (ATCC HTB-22) were seeded into 96 well fate bottom plates at a density of 10000 cells/well. After 24 h 1 µl each of the compound dilutions (test compounds were dissolved as 10 mM solutions in dimethylsulfoxide (DMSO) and subsequently diluted) were added into each well of the 96 well plates and incubated for 48h at 37°C in a humidified athmosphere containing 5% CO2. Cells were harvested and lysed in cell extraction buffer (10 mM Tris, pH 7.4, 100 mM NaCl, 1 mM EDTA, 1 mM EGTA, 1 mM NaF, 20 mM Na4P2O7, 2 mM Na3VO4, 1% Triton X-100, 10vol% glycerol, 0.1vol% SDS, 0.5vol% deoxycholate, 1 mM phenylmethylsulfonylfluorid (PMSF)). The lysate were centrifuged for 10 min. at 4°C and the supernatant were transferred to a new tube. 50 µl of sample diluent (standard diluent buffer, Biosource) were added and 100 µl of cell lysate transferred into the tube and vortexed. 100 µl of each diluted cell lysate were added to the appropriate ELISA well plate and incubated for 3h at room temperature. The plates were washed 4 times with 1x wash buffer (Biosource). 50 µl of detection antibody (GSK3 (Ser9) detection antibody; BioSource) were added to each well and incubated for 30 min. at room temperature. The washing procedure was repeated between each step. 100µl of HRP-linked secondary antibody (anti-mouse IgG HRP-linked antibody) were added to each well and incubated for 30 min. at room temperature. 100µl of TMB substrate (0.05vol% 3,3',5,5' tetramethylbenzidine, 0.1vol% hydrogen peroxide, complex polypeptides in a buffered solution; Biosource) were added to each well and incubated for 30 min. at room temperature. Finally 100 µl of Stop solution (0.05vol% α and β unsaturated carbonyl compound) were added to each well and the plate were shaked gently for a few seconds. The absorbance was measured at λ = 450 nm (Wallac Victor2; Perkin Elmer, USA) within 30 min. after adding the stop solution. The analysis of the data was performed using a statistical program (Excel; Microsoft, USA) and the IC50 of pGSK3 inhibition was determined.
A general note: An ELISA detects its analyte on a solid surface through an enzyme-linked reagent.

The subject of the next test is OvCAR3 cells. The experiment in a line: Cellular proliferation / Cytotoxicity assay (Alamar Blue). In kind it is cell-based. Conditions: Homo sapiens, OVCAR-3, 48h incubation, Alamar Blue (Resazurin) cell viability, read-out: Anti-proliferative / Cytotoxic activity (OvCAR3 cells). The protocol:
The anti-proliferative activity of the compounds as described herein, is evaluated using the OvCAR3, HCT116 and A549 cell lines and the Alamar Blue (Resazurin) cell viability assay (O'Brien et al. Eur J Biochem 267, 5421-5426, 2000). Resazurin is reduced to the fluorescent resorufin by cellular dehydrogenase activity, correlating with viable, proliferating cells. Test compounds are dissolved as 10 mM solutions in DMSO and subsequently diluted. Cells like HCT116 or A549 cells were seeded into 96 well flat bottom plates at a density of 10000 cells/well (OvCAR3 cells), 1000 cells/well (HCT116 cells) or 2000 cells/well (A549 cells) in a volume of 200 µl/well. 24 hours after seeding, 1 µl each of the compound dilutions are added into each well of the 96 well plates. Each compound dilution is tested as at least as duplicates. Wells containing untreated control cells were filled with 200 µl DMEM (Dulbecco's Modified Eagle Medium) containing 0.5vol% v:v DMSO. The cells are then incubated with the substances for 48h at 37°C in a humidified atmosphere containing 5vol% CO2. To determine the viability of the cells, 20 µl of a Resazurin solution (90mg / l) are added. After 4h incubation at 37°C, the fluorescence is measured by extinction at ? = 544 nm and an emission of ? = 590 nm (Wallac Victor2; Perkin Elmer, USA). For the calculation of the cell viability, the emission value from untreated cells is set as 100% viability and the fluorescence intensity of treated cells are set in relation to the values of untreated cells. Viabilities are expressed as % values. The corresponding IC50 values of the compounds for cytotoxic activity are determined from the concentration-effect curves by means of non-linear regression. The analysis of the data is performed using a biostatistical program (GraphPad Prism, USA). Representative IC50 values for anti-proliferative / cytotoxic potency determined in the aforementioned assay follow from the following table, in which the numbers of the compound correspond to the numbers of the examples.

On to `c1ccc(-c2cn3nc(C4CC4)nc3nc2-c2ccc(CN3CCC(c4n[nH]c(-c5ccccn5)n4)CC3)cc2)cc1` [Example 4, 2-cyclopropyl-6-phenyl-5-(4-{[4-(5-pyridin-2-yl-1,2,4-triazol-3-yl)piperidin-1-yl]methyl}phenyl)[1,2,4]triazolo[1,5-a]pyrimidine], for which the results for the IC50 (in test [1]; in the test with OvCAR3 cells) were 1000 to 10000 nM and less than 1000 nM, respectively.

As for `C=Cc1cnc2nc(-c3ccc(CN4CCC(c5n[nH]c(-c6ccccn6)n5)CC4)cc3)c(-c3ccccc3)cn12` [Example 15, 6-phenyl-7-(4-{[4-(5-pyridin-2-yl-1,2,4-triazol-3-yl)piperidin-1-yl]methyl}phenyl)-3-vinylimidazo[1,2-a]pyrimidine], the IC50 in test [1] is 1000 to 10000 nM; in the test on OvCAR3 cells, less than 1000 nM.

`C#Cc1cnc2nc(-c3ccc(CN4CCC(c5n[nH]c(-c6ccccn6)n5)CC4)cc3)c(-c3ccccc3)cn12` [Example 13, 3-ethynyl-6-phenyl-7-(4-{[4-(5-pyridin-2-yl-1,2,4-triazol-3-yl)piperidin-1-yl]methyl}phenyl)imidazo[1,2-a]pyrimidine]: the IC50 in test [1] was 1000 to 10000 nM; in the test on OvCAR3 cells, less than 1000 nM.
